Assay [1] has as its system Oryctolagus cuniculus. The experiment in a line: Hypotensive effect in normotensive chinchilla rabbits assessed as maximal effective time administered once to both eyes and measured every hour for 6 hrs by automatic veterinary tonometer based assay. In kind it is functional.
Assay [2] has as its system Oryctolagus cuniculus. The experiment in a line: Hypotensive effect in normotensive chinchilla rabbits assessed as reduction in intraocular pressure administered once to both eyes and measured every hour for 6 hrs by automatic veterinary tonometer based assay relative to control. It counts as functional. Also on record: concentration or dose not given beside the values.

Assay [3] relates to Oryctolagus cuniculus. The experiment in a line: Hypotensive effect in normotensive chinchilla rabbits assessed as reduction in intraocular pressure administered once to both eyes and measured after 6 hrs by automatic veterinary tonometer based assay. It counts as functional, organism-based.
Assay [4] deals with Oryctolagus cuniculus. The experiment in a line: Hypotensive effect in New Zealand white rabbits assessed as reduction in intraocular pressure at 100 uM administered topically in presence of 6-hydroxydopamine and measured every hour for 8 hrs relative to control. In kind it is functional. Also on record: scale not given: the % may be the effect or the level left.
For assay [5], the system named is Oryctolagus cuniculus. The experiment in a line: Hypotensive effect in New Zealand white rabbits assessed as reduction in intraocular pressure at 100 uM administered topically in presence of reserpine and measured every hour for 8 hrs relative to control. It counts as functional. Set-up: scale not given: the % may be the effect or the level left.
The test system of assay [6] is Oryctolagus cuniculus. The experiment in a line: Hypotensive effect in normotensive chinchilla rabbits assessed as reduction in intraocular pressure administered once to both eyes and measured after 6 hrs by automatic veterinary tonometer based assay relative to control. In kind it is functional. Set-up: scale not given: the % may be the effect or the level left.

Active and inactive are the calls of the source. The calls are words filed in the database; no cut-off is given here.

As to `CCOC(=O)Nc1ccc2c(c1)C(CC#N)C(=O)N2` (stereo unspecified), the Time in the assay on Oryctolagus cuniculus [1] was determined as 5 h. Moreover, the Activity in the assay with Oryctolagus cuniculus [2] is 8%.

For the compound `CC(C)(C)NC[C@H](O)COc1nsnc1N1CCOCC1` [TIMOLOL], the Time with Oryctolagus cuniculus [1] was 3 h. In addition, in the assay on Oryctolagus cuniculus [2], the Activity is given as 18%. Further, in the assay with Oryctolagus cuniculus [3], the result was inactive.

For `COC(=O)Nc1ccc2c(c1)C(CC(=O)O)C(=O)N2` (stereo unspecified), in the assay on Oryctolagus cuniculus [1], the Time came out at 3 h. The Activity in the assay on Oryctolagus cuniculus [2] was determined as 12%.

Take `COC(=O)Nc1ccc2[nH]cc(CCNC(C)=O)c2c1`: the Activity with Oryctolagus cuniculus [4] and in the assay with Oryctolagus cuniculus [5] was 5% throughout.

As to `COc1ccc2[nH]cc(CCNC(C)=O)c2c1` [MELATONIN], the Activity with Oryctolagus cuniculus [4] was 5%; with Oryctolagus cuniculus [5] it was 5%; in the assay with Oryctolagus cuniculus [2], 12%. Moreover, the Time in the assay with Oryctolagus cuniculus [1] amounted to 3 h.

Take `COC(=O)Nc1ccc2c(c1)C(CC#N)C(=O)N2` (stereo unspecified): in the assay with Oryctolagus cuniculus [1], the Time was found to be 2 h. Further, the Activity with Oryctolagus cuniculus [2] is reported as 24%; with Oryctolagus cuniculus [6] it was 17%.

The values above are taken from ChEMBL document CHEMBL5247666, “The rational design of novel 5-amino-2-oxindole derivatives with antiglaucomic activity” (2023).
